{"source": "patent US9144595B2", "about": "“APLs for treating arthritis” (University of Tennessee Research Foundation, priority 2009, dated 2015)", "key": {"[1]": {"tested_on": "patients with recent onset of type 1 diabetes mellitus", "conditions": "IFNγ and IL-5 ELISPOT, weeks 0-26; cited from earlier work"}, "patients with RA": {"tested_on": "patients with RA", "conditions": "cited from earlier work"}, "[2]": {"tested_on": "splenocytes of DR1 transgenic mice", "assay": "Oral APL A12: IFNγ production by cultured splenocytes of DR1 transgenic mice", "assay_type": "in vivo, mouse"}, "[3]": {"tested_on": "Peyer's Patch cells of DR1 TCRtg+/+ mice", "assay": "Oral APL A12: IL-17 and IL-10 in cultures of Peyer's Patch cells of DR1 TCRtg+/+ mice", "assay_type": "in vivo, mouse"}, "[4]": {"tested_on": "murine models of oral tolerance", "assay": "Murine models of oral tolerance", "conditions": "mouse, in vivo", "source_text": "A form of CII based therapy has been tried in patients with RA and juvenile RA by administering intact native chick or bovine CII to patients. Seven trials of treatment with oral CII have been reported including two of our own. […] Most patients in these studies also received NSAIDs which block oral tolerance and systemic tolerance. The use of NSAIDS might have been responsible for the mixed results of oral CII in RA. […] Furthermore, we have applied these crucial data in designing oral tolerance trials in humans. We can down regulate with oral CII, PBMC production of IFNγ to α1(II) in RA patients who take NSAIDS plus misoprostol and/or DMARDS and anti-TNFα therapies. Oral administration of low dose antigen generates regulatory T cells, which act in the respective microenvironment in a non-antigen specific manner by producing down-regulatory cytokines such as IL4, IL10 and TGFbeta, a Th2/Th3 cytokine pattern."}, "DR1 Transgenic mice": {"tested_on": "DR1 Transgenic mice", "assay": "Effect of A12 on CIA in DR1 Transgenic mice (CII plus A12; intravenous A12 after CII-immunization)", "assay_type": "in vivo, mouse", "protocol": "Assuming that CII263-270 was key to developing immunity to the intact CII molecule, a number of analog peptides where amino acids within this small segment were substituted with those found in the corresponding sites of nonarthritogenic type I collagen were prepared and tested. […] The APL A12 developed for this study has the following amino acid sequence: LGPKGQTGEBG[IAGNKGDQGPK]GEBGPA (SEQ ID NO: 3) where B=hydroxproline. The core determinant of human CII263-270 is bracketed. The underlined residues are those substituted to produce APL A12. The residues amino terminal and carboxy terminal to the core determinant is from the normal human CII sequence."}, "[5]": {"conditions": "mice gavaged with 50 μg CII263-270 9 times over 2 weeks, cells cultured with PBS"}, "[6]": {"conditions": "mice gavaged with 50 μg CII263-270, cells cultured with APL A12 50 μg/ml"}, "[7]": {"conditions": "mice gavaged with 50 μg CII263-270, cells cultured with CII263-270 50 μg/ml"}, "[8]": {"conditions": "mice gavaged with PBS, cells cultured with CII263-270 50 μg/ml"}}}
{"molecule": "SHLVEALALVAGERG [NBI-6024]", "values": [{"measurement": "PBMC ELISPOT responses to B(9-23) epitope and NBI-6024", "setting": "[1]", "value": "induced, predominantly Th2 responses"}]}
{"molecule": "[O]QKRAAYDQ[U]YGHAAFE (QKRAAYDQYGHAAFE; Synthetic peptide dnaJP1) [synthetic peptide derived from bacterial heat shock protein]", "values": [{"measurement": "cytokine profile", "setting": "patients with RA; CD3+ cells, oral, six months", "value": "switch in the cytokine profile from Th1 to Th2"}, {"measurement": "tolerability", "setting": "patients with RA; oral 0.25, 2.5 and 25 mg per day for six months", "value": "well tolerated and no significant side effects occurred"}, {"measurement": "worsening of arthritis", "setting": "patients with RA; oral, six months", "value": "no worsening of arthritis"}]}
{"molecule": "FKGEQGPK [CII263-270, reference compound]", "values": [{"measurement": "IFNγ Levels in Splenocyte Culture", "setting": "[2]; mice gavaged with 50 μg CII263-270 8 times over 2 weeks, splenocytes cultured with PBS", "value": "68 ± 85", "unit": "pg/mL"}, {"measurement": "IFNγ Levels in Splenocyte Culture", "setting": "[2]; mice gavaged with 50 μg CII263-270, splenocytes cultured with APL A12 50 μg/ml", "value": "80 ± 52", "unit": "pg/mL"}, {"measurement": "IFNγ Levels in Splenocyte Culture", "setting": "[2]; mice gavaged with 50 μg CII263-270, splenocytes cultured with CII263-270 50 μg/ml", "value": "124 ± 84", "unit": "pg/mL"}, {"measurement": "IFNγ Levels in Splenocyte Culture", "setting": "[2]; mice gavaged with PBS, splenocytes cultured with CII263-270 50 μg/ml", "value": "280 ± 222", "unit": "pg/mL"}, {"measurement": "II-10 Levels in Peyer's Patch Cultures", "setting": "[3]; [5]", "value": 15, "unit": "pg/mL"}, {"measurement": "IL-17 Levels in Peyer's Patch Cultures", "setting": "[3]; [5]", "value": 11, "unit": "pg/mL"}, {"measurement": "II-10 Levels in Peyer's Patch Cultures", "setting": "[3]; [6]", "value": 35, "unit": "pg/mL"}, {"measurement": "IL-17 Levels in Peyer's Patch Cultures", "setting": "[3]; [6]", "value": 62, "unit": "pg/mL"}, {"measurement": "II-10 Levels in Peyer's Patch Cultures", "setting": "[3]; [7]", "value": 15, "unit": "pg/mL"}, {"measurement": "IL-17 Levels in Peyer's Patch Cultures", "setting": "[3]; [7]", "value": 256, "unit": "pg/mL"}, {"measurement": "II-10 Levels in Peyer's Patch Cultures", "setting": "[3]; [8]", "value": 45, "unit": "pg/mL"}, {"measurement": "IL-17 Levels in Peyer's Patch Cultures", "setting": "[3]; [8]", "value": 30, "unit": "pg/mL"}]}
{"molecule": "etanercept", "values": [{"measurement": "oral tolerance induction", "setting": "[4]", "value": "do not block oral tolerance induction"}]}
{"molecule": "Ova: control antigen given intravenously in Table I (protein, UniProt P01012 2-386, looked up) Ovalbumin: GSIGAASMEFCFDVFKELKVHHANENIFYCPIAIMSALAMVYLGAKDSTRTQINKVVRFDKLPGFGDSIEAQCGTSVNVHSSLRDILNQITKPNDVYSFSLASRLYAEERYPILPEYLQCVKELYRGGLEPINFQTAADQARELINSWVESQTNGIIRNVLQPSSVDSQTAMVLVNAIVFKGLWEKAFKDEDTQAMPFRVTEQESKPVQMMYQIGLFRVASMASEKMKILELPFASGTMSMLVLLPDEVSGLEQLESIINFEKLTEWTSSNVMEERKIKVYLPRMKMEEKYNLTSVLMAMGITDVFSSSANLSGISSAESLKISQAVHAAHAEINEAGREVVGSAEAGVDAASVSEEFRADHPFLFCIKHIATNAVLFFGRCVSP", "values": [{"measurement": "Antibodies to CII", "setting": "DR1 Transgenic mice; 1 mg total i.v.", "value": "42 ± 10"}, {"measurement": "Incidence", "setting": "DR1 Transgenic mice; arthritis incidence, 1 mg total i.v. on days 10, 12, 14 after CII-immunization", "value": "7/10"}]}
